Patent publication US20170305922A1, “CARM1 INHIBITORS AND USES THEREOF” (Epizyme, Inc., priority 2014, published 2017)

Experiments:
[1] = system: asymmetric di-methyl PABP1 in RKO cells; experiment: RKO methylation assay: In Cell Western (ICW) for asymmetric di-methyl PABP1 (PABP1me2a); conditions: Cellular-based (PABP1me2a) ICW (In Cell Western) assay
How it was run: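 In-cell western on compound-exposed RKO cells (48 hours): asymmetric di-methyl PABP1 detected by antibody at 800 nm, DNA content by DRAQ5 at 700 nm. Percent inhibition from signal ratios against DMSO (minimum) and 20 μM reference compound (maximum) wells; IC50 curves fitted from triplicates.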

Human CARM1 (PRMT4) = target: T1, Human CARM1 (PRMT4) (Homo sapiens, UniProt Q86X55); experiment: CARM1 enzyme assay on peptide substrates (3H-SAM Flashplate); conditions: Biochemical assay; CARM1 0.25 nM, 3H-SAM 30 nM, peptide 250 nM; read-out: Biochem IC50
T1 construct: Flag-CARM1-His was eluted with 200 ug/ml FLAG peptide in buffer A; made in house; host or cells: HEK 293F cells infected with recombinant baculovirus (pFastBacMam)
T1 sequence (Q86X55 1-585 isoform Q86X55-1): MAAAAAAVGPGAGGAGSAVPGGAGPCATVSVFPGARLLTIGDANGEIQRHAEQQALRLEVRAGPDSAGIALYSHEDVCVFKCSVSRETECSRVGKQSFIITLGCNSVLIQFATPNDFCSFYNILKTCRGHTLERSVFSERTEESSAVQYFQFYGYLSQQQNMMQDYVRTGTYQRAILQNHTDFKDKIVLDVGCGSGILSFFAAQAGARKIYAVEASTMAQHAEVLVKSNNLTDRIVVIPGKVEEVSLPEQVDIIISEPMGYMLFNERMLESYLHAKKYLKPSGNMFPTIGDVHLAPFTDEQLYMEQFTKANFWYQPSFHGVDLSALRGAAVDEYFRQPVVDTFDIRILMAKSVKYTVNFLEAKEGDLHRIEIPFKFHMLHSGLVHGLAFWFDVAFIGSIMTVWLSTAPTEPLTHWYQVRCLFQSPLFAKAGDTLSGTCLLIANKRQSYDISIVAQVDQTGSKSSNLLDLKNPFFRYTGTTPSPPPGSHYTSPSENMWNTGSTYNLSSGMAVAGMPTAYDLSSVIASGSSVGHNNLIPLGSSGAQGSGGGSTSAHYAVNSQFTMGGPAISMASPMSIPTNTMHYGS

Structure (SMILES) | IC50 ([1]; Homo sapiens, RKO, 48 h) [µM] | IC50 (Human CARM1 (PRMT4)) [µM] | IC50 ([1]; 48 hours) [µM]
CNC[C@@H](O)COc1ccc(Cl)c(-c2nc(-c3c(C)noc3C)c(C)c(N3Cc4ncnc(OCC(F)F)c4C3)n2)c1 [Example 154] | 0.057 | 0.0031 | 
CNC[C@@H](O)COc1ccc(Cl)c(-c2nc(-c3c(C)noc3C)c(C)c(N3CC4(CC(N5CC(OC)C5)C4)C3)n2)c1 [Example 269] | 0.355 | 0.0008 | 
CNC[C@@H](O)COc1ccc(Cl)c(-c2nc(-c3c(C)noc3C)c(C)c(N3CC4(CCC(F)(F)CC4)C3)n2)c1 [Example 67] | 0.071 | 0.005 | 
CNC[C@@H](O)COc1ccc(Cl)c(-c2nc(-c3c(C)c(Br)nn3C)c(C)c(N3CC4(CC(OC(C)C)C4)C3)n2)c1 [Example 275] | 0.045 | 0.00353 | 
CNC[C@@H](O)COc1ccc(Cl)c(-c2nc(-c3c(C)noc3C)c(C)c(N3CC4(CCN4C(=O)OC)C3)n2)c1 [Example 98] | 0.099 | 0.0084 | 
CNC[C@@H](O)COc1ccc(C(F)(F)F)c(-c2nc(-c3c(C)noc3C)c(C)c(N3Cc4cn(C(C)C)nc4C3)n2)c1 [Example 22] | 0.181 | 0.0063 | 
CNC[C@@H](O)COc1ccc(Cl)c(-c2nc(-c3c(C)noc3C)c(C)c(N3CC4(CCC(C(=O)N5CCOCC5)CC4)C3)n2)c1 [Example 165] | 0.322 | 0.0058 | 
CNC[C@@H](O)COc1ccc(Cl)c(-c2nc(-c3c(C)noc3C)c(C)c(N3Cc4nccc(OCC(F)F)c4C3)n2)c1 [Example 235] | 0.054 | 0.0007 | 
CNC[C@@H](O)COc1ccc(Cl)c(-c2nc(-c3c(C)noc3C)c(C)c(N3CC(C)(CO)C3)n2)c1 [Example 252] | 0.561 | 0.00801 | 
CNC[C@@H](O)COc1ccc(Cl)c(-c2nc(-c3c(C)noc3C)c(C)c(N3CC4(CC(OC(C)C)C4)C3)n2)c1 [Example 260] |  | 0.00595 | 0.0455
CNC[C@@H](O)COc1ccc(Cl)c(-c2nc(-c3c(C)noc3C)c(C)c(N3CC4(CCN(C(=O)OCC(F)F)C4)C3)n2)c1 [Example 180] | 0.121 | 0.0041 | 
CNC[C@@H](O)COc1ccc(Cl)c(-c2nc(-c3c(C)noc3C)c(C)c(N3Cc4c(n(C)c(=O)n(C)c4=O)C3C)n2)c1 (some centres unmarked) [Example 34] | 0.12 | 0.0051 | 
CNC[C@@H](O)COc1ccc(Cl)c(-c2nc(-c3c(C)noc3C)c(C)c(N3Cc4cnc(N5CCC5)nc4C3)n2)c1 [Example 105] | 0.011 | 0.0032 | 
CNC[C@H](O)COc1ccc(Cl)c(-c2nc(-c3c(C)noc3C)c(C)c(N3Cc4cccnc4C3)n2)c1 [Example 293] | 0.155 | 0.00142 | 
CNC[C@@H](O)COc1ccc(Cl)c(-c2nc(-c3c(C)noc3C)c(C)c(N3CC4(C3)CC(OC)(OC)C4)n2)c1 [Example 272] | 0.079 | 0.00543 | 
CNC[C@@H](O)COc1ccc(Cl)c(-c2nc(-c3c(C)noc3C)c(C)c(N3Cc4c(C)nn(CC(F)(F)F)c4C3)n2)c1 [Example 13] | 0.074 | 0.0036 | 
CCN(C)c1ncc2c(n1)CN(c1nc(-c3cc(OC[C@H](O)CNC)ccc3Cl)nc(-c3c(C)noc3C)c1C)C2 [Example 157] | 0.026 | 0.0024 | 
CNC[C@@H](O)COc1ccc(Cl)c(-c2nc(-c3c(C)noc3C)c(Cl)c(N3Cc4cnn(C)c4C3)n2)c1 [Example 11] | > 20 | 0.0607 | 
CNC[C@@H](O)COc1ccc(Cl)c(-c2nc(-c3c(C)noc3C)c(C)c(N3CC(C)(C(=O)N(C)C)C3)n2)c1 [Example 188] | 0.15 | 0.0052 | 
CNC[C@@H](O)COc1ccc(Cl)c(-c2nc(-c3c(C)noc3C)c(C)c(N3Cc4ccnc(N(C)C)c4C3)n2)c1 [Example 186] | 0.049 | 0.0018 | 
CC[C@H]1CN(c2nc(-c3cc(OC[C@H](O)CNC)ccc3Cl)nc(-c3c(C)noc3C)c2C)CCN1S(C)(=O)=O [Example 204] | 0.486 | 0.0043 | 
CNC[C@@H](O)COc1ccc(Cl)c(-c2nc(-c3c(C)noc3C)c(C)c(N3Cc4cnc(N(C)C)nc4C3)n2)c1 [Example 158] | 0.018 | 0.0029 | 
CCn1ncc(Cl)c1-c1nc(-c2cc(OC[C@H](O)CNC)ccc2Cl)nc(N2Cc3cccnc3C2)c1C [Example 77] | 0.293 | 0.0037 | 

Structure (SMILES) | IC50 ([1]; Homo sapiens, RKO, 48 h) [µM] | IC50 (Human CARM1 (PRMT4)) [µM] | IC50 ([1]; 48 hours) [µM]
CNC[C@@H](O)COc1ccc(Cl)c(-c2nc(-c3c(C)noc3C)c(C)c(N3Cc4nc(C)n(C)c(=O)c4C3)n2)c1 [Example 66] | 0.261 | 0.0037 | 
CNC[C@@H](O)COc1ccc(Cl)c(-c2nc(-c3c(C)noc3C)c(C)c(N3CCC4(C3)OCCO4)n2)c1 [Example 25] | 0.452 | 0.0056 | 
CNC[C@@H](O)COc1ccc(F)c(-c2nc(-c3c(C)noc3C)c(C)c(N3Cc4cnn(CC(F)(F)F)c4C3)n2)c1 [Example 18] | 0.069 | 0.0031 | 
CNC[C@@H](O)COc1ccc(Cl)c(-c2nc(-c3c(C#N)cnn3C)c(C)c(N3Cc4cccnc4C3)n2)c1 [Example 348] | 1.67 | 0.00567 | 
CNC[C@@H](O)COc1ccc(Cl)c(-c2nc(-c3c(C)c(Cl)nn3C)c(C)c(N3Cc4cnc(OCC(F)F)nc4C3)n2)c1 [Example 156] | 0.031 | 0.0035 | 
CNC[C@@H](O)COc1ccc(Cl)c(-c2nc(-c3c(C)c(Cl)nn3C)c(C)c(N3CC4(CN(C(=O)OC)C4)C3)n2)c1 [Example 265] | 0.0877 | 0.0042 | 
CNC[C@@H](O)COc1ccc(Cl)c(-c2nc(-c3c(C)noc3C)c(C)c(N3CC4(CCN(C(C)=O)CC4)C3)n2)c1 [Example 51] | 0.356 | 0.0108 | 
CNC[C@@H](O)COc1ccc(Cl)c(-c2nc(-c3c(C)noc3C)c(C)c(-n3ncc4c3CN(C(=O)OC)C4)n2)c1 [Example 122] | 1.81 | 0.0137 | 
CNC[C@@H](O)COc1ccc(Cl)c(-c2nc(-c3c(C)noc3C)c(C)c(N3CC4(CN(C(=O)OCCOC)C4)C3)n2)c1 [Example 255] | 0.377 | 0.00722 | 
CNC[C@@H](O)COc1ccc(Cl)c(-c2nc(-c3c(C)noc3C)c(C)c(N3CC4(CCN(C(=O)N(C)C)C4)C3)n2)c1 [Example 48] | 0.238 | 0.0127 | 
CNC[C@@H](O)COc1ccc(Cl)c(-c2nc(-c3c(C)noc3C)c(C)c(N3Cc4cn(C(CO)CO)nc4C3)n2)c1 [Example 114] | 5.85 | 0.0078 | 
CNC[C@@H](O)COc1ccc(Cl)c(-c2nc(-c3c(C)noc3C)c(C)c(N3Cc4cnc(N5CC[C@H]5C)nc4C3)n2)c1 [Example 194] | 0.013 | 0.0018 | 
CNC[C@@H](O)COc1ccc(Cl)c(-c2nc(-c3c(C)noc3C)c(C)c(N3CC4(CC(OCCOC)C4)C3)n2)c1 [Example 241] | 0.084 | 0.0062 | 
CNC[C@@H](O)COc1ccc(Cl)c(-c2nc(-c3cnn(CC(F)(F)F)c3)c(C)c(-c3c(C)noc3C)n2)c1 [Example 118] | 0.428 | 0.009 | 
CNC[C@@H](O)COc1ccc(Cl)c(-c2nc(-c3c(C)noc3C)c(C)c(N3CCN(C(=O)OC)CC3)n2)c1 [Example 216] | 0.415 | 0.0054 | 
CNC[C@@H](O)COc1ccc(Cl)c(-c2nc(-c3c(C)noc3C)c(C)c(N3CC4(CCC(OCCOC)CC4)C3)n2)c1 [Example 128] | 0.099 | 0.0163 | 
CNC[C@@H](O)COc1ccc(Cl)c(-c2nc(-c3c(C)noc3C)c(C)c(N3Cc4cnc(SC)nc4C3)n2)c1 [Example 117] | 0.031 | 0.0039 | 
CNC[C@@H](O)COc1ccc(Cl)c(-c2nc(-c3c(C)c(Br)nn3C)c(C)c(N3CC4(CN(CC(F)(F)F)C4)C3)n2)c1 [Example 305] |  | 0.00835 | 0.0277
CNC[C@@H](O)COc1ccc(Cl)c(-c2nc(-c3c(C)noc3C)c(C)c(N3Cc4cnc(N5CCC5C)nc4C3)n2)c1 (some centres unmarked) [Example 167] | 0.019 | 0.0019 | 
CNC[C@@H](O)COc1ccc(Cl)c(-c2nc(-c3c(C)noc3C)c(C)c(N3Cc4cnc(C)cc4[C@@H]3C)n2)c1 [Example 142] | 0.065 | 0.0036 | 
CCn1ncc(Cl)c1-c1nc(-c2cc(OC[C@H](O)CNC)ccc2Cl)nc(N2CC3(CCN(C(=O)OC)CC3)C2)c1C [Example 75] | 0.396 | 0.0125 | 
CNC[C@@H](O)COc1ccc(Cl)c(-c2nc(-c3c(C)noc3C)c(C)c(N3CC4(CC(OC(=O)OC)C4)C3)n2)c1 [Example 239] | 0.052 | 0.0047 | 
CNC[C@@H](O)COc1ccc(Cl)c(-c2nc(-c3c(C)c(Cl)nn3C)c(C)c(N3CC4(CN(CC(F)F)C4)C3)n2)c1 [Example 285] | 0.0461 | 0.0024 | 
